Results on 3 molecules are retold here after US20040024178A1, “Bacterial signal peptidase inhibitors and uses thereof” (priority 1999, published 2004).

For one series, the target named is E. coli leader peptidase (Escherichia coli, UniProt P00803). The note with it: cited from earlier work.
The target of a further series is T1, Octanoyl-[…]OH.
T1 chain: LTPTAKAASKIDD

The next series deals with T2, Decanoyl-[…]OH.
T2 chain: LTPTAKAASKIDD

Chain of E. coli leader peptidase (P00803 whole entry): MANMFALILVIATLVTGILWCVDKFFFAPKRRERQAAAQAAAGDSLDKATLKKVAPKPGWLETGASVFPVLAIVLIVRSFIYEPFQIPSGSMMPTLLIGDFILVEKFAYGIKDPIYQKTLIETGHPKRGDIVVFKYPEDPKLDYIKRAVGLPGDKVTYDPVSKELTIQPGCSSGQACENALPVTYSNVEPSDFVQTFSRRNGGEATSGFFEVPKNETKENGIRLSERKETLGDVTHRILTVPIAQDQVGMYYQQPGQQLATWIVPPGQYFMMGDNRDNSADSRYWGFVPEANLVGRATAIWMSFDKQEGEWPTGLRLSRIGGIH

In the case of ALAKI, the rate of turnover entry on E. coli leader peptidase (Dev et al) is “very slow”.

With ASVAVATLVPMLSFAAEGDDPAK, the rate of cleavage entry at E. coli leader peptidase (versus parent M13 procoat protein, Dierstein and Wickner) was “comparable to that of the parent”.

B1: S. aureus SpsB signal peptidase (protein)
chain: MKKELLEWIISIAVAFVILFIVGKFIVTPYTIKGESMDPTLKDGERVAVNIIGYKTGGLEKGNVVVFHANKNDDYVKRVIGVPGDKVEYKNDTLYVNGKKQDEPYLNYNLKHKQGDYITGTFQVKDLPNANPKSNVIPKGKYLVLGDNREVSKDSRAFGLIDEDQIVGKVSFRFWPFSEFKHNFNPENTKN
Consider B1, for which the “processing after 30 minutes (HPLC/MS cleavage assay)” value with Octanoyl-[…]OH and with Decanoyl-[…]OH was >80% processing after 30 minutes each time.
